Source: patent publication US8901133B2, “Heterocyclic compounds and uses thereof” (Infinity Pharmaceuticals, Inc., priority 2010, dated 2014)

Assays:
Format in all cases: biochemical
PI3Kδ = biological target: T1, PI3Kδ (Homo sapiens, UniProt O00329); test: PI3 Kinase HTRF assay, PI3Kδ; conditions: 10 μM PIP2, 10 μM ATP; read-out: PI3K δ IC50
T1 construct: purchased Millipore Corporation 14-604-K
Description: (§1) A PI3 Kinase HTRF® assay kit (cat No. 33-016) purchased from Millipore Corporation was used to screen compounds disclosed herein. This assay used specific, high affinity binding of the GRP1 pleckstrin homology (PH) domain to PIP3, the product of a Class 1A or 1B PI3 Kinase acting on its physiological substrate PIP2. During the detection phase of the assay, a complex was generated between the GST-tagged PH domain and biotinylated short chain PIP3. The biotinylated PIP3 and the GST-tagged PH domain recruited fluorophores (Streptavidin-Allophycocyanin and Europium-labeled anti-GST respectively) to form the fluorescence resonance energy transfer (FRET) architecture, generating a stable time-resolved FRET signal. The FRET complex was disrupted in a competitive manner by non-biotinylated PIP3, a product formed in the PI3 Kinase assay.
(§2) PI3 Kinase α, β, γ and δ activity was assayed using the PI3 Kinase HTRF® assay kit (catalogue No. 33-016) purchased from Millipore Corporation. Purified recombinant PI3Kα (catalogue No. 14-602-K), PI3Kβ (catalogue No. 14-603-K), PI3Kγ (catalogue No. 14-558-K) and PI3Kδ (catalogue No. 14-604-K) were obtained from Millipore Corporation. Purified recombinant PI3K enzyme was used to catalyze the phosphorylation of phosphatidylinositol 4,5-bisphosphate (PIP2 at 10 μM) to phosphatidylinositol 3,4,5-trisphosphate (PIP3) in the presence of 10 μM ATP. The assay was carried out in 384-well format and detected using a Perkin Elmer En Vision Xcite Multilabel Reader. Emission ratios were converted into percent inhibitions and imported into GraphPad Prism software. The concentration necessary to achieve inhibition of enzyme activity by 50% (IC50) was calculated using concentrations ranging from 20 μM to 0.1 nM (12-point curve). IC50 values were determined using a nonlinear regression model available in GraphPad Prism 5. […]

PI3Kγ = biological target: T2, PI3Kγ (Homo sapiens, UniProt P48736); test: PI3 Kinase HTRF assay, PI3Kγ; conditions: 10 μM PIP2, 10 μM ATP; read-out: PI3K γ IC50
T2 construct: purchased Millipore Corporation 14-558-K
Description: as §1, §2

PI3Kα = biological target: T3, PI3Kα (Homo sapiens, UniProt P42336); test: PI3 Kinase HTRF assay, PI3Kα; conditions: 10 μM PIP2, 10 μM ATP; read-out: PI3K α IC50
T3 construct: purchased Millipore Corporation 14-602-K
Description: as §1, §2

PI3Kβ = biological target: T4, PI3Kβ (Homo sapiens, UniProt P42338); test: PI3 Kinase HTRF assay, PI3Kβ; conditions: 10 μM PIP2, 10 μM ATP; read-out: PI3K β IC50
T4 construct: purchased Millipore Corporation 14-603-K
Description: as §1, §2

T2 sequence (P48736 whole entry): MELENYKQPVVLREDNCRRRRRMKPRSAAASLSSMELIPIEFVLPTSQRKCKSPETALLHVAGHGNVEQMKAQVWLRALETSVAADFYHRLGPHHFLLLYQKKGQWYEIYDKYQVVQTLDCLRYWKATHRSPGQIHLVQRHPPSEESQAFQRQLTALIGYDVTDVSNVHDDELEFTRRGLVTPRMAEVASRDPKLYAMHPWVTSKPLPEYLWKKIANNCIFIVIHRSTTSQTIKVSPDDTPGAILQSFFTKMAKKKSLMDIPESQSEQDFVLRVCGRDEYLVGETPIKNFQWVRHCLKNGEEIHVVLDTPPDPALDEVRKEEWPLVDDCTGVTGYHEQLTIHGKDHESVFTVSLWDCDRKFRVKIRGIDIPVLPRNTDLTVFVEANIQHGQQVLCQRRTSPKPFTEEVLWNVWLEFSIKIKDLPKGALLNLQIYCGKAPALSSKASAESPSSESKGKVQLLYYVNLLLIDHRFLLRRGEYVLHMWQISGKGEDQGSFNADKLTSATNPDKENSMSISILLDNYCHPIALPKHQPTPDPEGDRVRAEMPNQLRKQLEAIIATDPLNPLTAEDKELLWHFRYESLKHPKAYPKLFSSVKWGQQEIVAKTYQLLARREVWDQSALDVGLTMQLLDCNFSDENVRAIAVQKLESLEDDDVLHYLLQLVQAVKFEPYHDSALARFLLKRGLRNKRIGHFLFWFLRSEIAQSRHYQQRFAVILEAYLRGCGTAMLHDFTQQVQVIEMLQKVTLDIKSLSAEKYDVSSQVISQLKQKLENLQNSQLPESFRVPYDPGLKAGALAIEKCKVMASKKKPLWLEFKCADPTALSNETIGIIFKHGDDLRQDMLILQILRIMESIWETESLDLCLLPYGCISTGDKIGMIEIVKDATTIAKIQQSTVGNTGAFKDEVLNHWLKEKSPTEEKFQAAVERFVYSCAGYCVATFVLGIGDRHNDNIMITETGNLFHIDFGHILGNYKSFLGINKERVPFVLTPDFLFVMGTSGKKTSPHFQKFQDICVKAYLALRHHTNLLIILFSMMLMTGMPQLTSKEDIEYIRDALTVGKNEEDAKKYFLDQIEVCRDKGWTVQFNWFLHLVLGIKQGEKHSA
T4 sequence (P42338 whole entry): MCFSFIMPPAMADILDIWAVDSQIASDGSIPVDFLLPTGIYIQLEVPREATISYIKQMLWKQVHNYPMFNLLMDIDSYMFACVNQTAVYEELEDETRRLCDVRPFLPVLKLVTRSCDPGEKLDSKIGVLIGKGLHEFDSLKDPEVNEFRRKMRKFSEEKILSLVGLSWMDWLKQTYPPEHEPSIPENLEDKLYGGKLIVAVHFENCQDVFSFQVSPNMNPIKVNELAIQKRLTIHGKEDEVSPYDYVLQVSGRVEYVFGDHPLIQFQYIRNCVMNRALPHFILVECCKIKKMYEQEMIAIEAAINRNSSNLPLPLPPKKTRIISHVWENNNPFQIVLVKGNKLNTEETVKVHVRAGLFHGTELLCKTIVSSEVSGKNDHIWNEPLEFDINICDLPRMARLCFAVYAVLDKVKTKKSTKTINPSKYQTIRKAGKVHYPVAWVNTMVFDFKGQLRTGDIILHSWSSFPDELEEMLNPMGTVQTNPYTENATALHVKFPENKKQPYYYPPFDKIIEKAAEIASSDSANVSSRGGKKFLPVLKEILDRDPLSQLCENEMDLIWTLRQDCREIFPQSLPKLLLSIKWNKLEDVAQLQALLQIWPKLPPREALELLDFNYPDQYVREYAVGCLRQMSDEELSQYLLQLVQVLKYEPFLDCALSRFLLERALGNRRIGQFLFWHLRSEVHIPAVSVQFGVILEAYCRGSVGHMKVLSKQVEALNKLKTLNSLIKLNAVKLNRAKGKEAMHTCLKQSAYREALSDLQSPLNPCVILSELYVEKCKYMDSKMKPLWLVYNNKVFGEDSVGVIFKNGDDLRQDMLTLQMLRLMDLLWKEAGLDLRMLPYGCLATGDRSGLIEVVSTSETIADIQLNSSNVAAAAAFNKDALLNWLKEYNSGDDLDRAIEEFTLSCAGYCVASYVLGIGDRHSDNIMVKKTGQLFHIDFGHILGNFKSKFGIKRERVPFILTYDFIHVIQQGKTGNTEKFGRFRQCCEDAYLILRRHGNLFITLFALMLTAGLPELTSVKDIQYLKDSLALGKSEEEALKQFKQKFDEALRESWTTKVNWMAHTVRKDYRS
T4 sequence (P27986 whole entry partner): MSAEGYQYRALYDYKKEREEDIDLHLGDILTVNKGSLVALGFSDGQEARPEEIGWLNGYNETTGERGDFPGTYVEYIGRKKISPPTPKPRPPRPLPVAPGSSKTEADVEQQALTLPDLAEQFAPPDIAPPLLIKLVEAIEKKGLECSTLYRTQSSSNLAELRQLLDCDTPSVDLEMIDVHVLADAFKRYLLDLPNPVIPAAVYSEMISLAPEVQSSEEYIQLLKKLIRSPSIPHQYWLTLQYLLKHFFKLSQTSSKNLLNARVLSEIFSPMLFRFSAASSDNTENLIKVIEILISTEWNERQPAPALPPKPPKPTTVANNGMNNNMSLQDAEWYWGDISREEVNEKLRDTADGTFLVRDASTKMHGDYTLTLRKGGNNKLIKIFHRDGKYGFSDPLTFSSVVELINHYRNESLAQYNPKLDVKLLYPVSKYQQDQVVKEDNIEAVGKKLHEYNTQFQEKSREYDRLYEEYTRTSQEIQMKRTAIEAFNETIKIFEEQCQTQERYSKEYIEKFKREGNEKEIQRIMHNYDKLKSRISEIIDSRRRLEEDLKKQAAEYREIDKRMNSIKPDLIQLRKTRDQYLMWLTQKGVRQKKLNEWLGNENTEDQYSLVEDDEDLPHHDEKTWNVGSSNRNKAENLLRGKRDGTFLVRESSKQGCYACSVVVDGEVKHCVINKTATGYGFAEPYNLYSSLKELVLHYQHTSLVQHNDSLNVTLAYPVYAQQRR
T1 sequence (O00329 whole entry): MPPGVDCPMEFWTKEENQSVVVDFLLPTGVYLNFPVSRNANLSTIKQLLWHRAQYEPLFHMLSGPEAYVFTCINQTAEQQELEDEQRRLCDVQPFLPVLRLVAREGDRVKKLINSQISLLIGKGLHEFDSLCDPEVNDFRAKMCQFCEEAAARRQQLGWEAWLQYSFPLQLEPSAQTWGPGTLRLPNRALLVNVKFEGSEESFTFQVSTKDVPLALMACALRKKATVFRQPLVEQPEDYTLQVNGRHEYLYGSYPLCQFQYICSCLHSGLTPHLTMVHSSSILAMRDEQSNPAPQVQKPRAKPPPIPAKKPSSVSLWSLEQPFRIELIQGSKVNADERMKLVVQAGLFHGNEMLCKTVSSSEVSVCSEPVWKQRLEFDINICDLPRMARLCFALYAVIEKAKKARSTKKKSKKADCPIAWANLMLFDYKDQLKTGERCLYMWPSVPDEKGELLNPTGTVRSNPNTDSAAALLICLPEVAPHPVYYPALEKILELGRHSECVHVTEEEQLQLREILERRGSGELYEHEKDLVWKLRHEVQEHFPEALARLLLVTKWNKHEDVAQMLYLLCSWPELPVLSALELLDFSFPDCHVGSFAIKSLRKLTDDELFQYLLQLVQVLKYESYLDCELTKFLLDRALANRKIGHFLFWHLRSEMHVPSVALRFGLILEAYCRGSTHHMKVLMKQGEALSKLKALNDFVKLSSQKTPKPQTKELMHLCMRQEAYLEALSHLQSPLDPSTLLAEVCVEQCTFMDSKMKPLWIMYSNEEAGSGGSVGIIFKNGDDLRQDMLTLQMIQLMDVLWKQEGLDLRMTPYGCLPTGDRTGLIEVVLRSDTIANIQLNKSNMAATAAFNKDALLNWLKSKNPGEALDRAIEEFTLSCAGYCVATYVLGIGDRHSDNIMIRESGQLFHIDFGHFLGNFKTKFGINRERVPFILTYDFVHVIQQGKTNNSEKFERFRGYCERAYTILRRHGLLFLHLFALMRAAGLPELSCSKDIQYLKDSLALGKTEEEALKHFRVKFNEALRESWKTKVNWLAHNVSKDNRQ
T1 sequence (P27986 whole entry partner): as the sequence (P27986 whole entry partner) above
T3 sequence (P42336 whole entry): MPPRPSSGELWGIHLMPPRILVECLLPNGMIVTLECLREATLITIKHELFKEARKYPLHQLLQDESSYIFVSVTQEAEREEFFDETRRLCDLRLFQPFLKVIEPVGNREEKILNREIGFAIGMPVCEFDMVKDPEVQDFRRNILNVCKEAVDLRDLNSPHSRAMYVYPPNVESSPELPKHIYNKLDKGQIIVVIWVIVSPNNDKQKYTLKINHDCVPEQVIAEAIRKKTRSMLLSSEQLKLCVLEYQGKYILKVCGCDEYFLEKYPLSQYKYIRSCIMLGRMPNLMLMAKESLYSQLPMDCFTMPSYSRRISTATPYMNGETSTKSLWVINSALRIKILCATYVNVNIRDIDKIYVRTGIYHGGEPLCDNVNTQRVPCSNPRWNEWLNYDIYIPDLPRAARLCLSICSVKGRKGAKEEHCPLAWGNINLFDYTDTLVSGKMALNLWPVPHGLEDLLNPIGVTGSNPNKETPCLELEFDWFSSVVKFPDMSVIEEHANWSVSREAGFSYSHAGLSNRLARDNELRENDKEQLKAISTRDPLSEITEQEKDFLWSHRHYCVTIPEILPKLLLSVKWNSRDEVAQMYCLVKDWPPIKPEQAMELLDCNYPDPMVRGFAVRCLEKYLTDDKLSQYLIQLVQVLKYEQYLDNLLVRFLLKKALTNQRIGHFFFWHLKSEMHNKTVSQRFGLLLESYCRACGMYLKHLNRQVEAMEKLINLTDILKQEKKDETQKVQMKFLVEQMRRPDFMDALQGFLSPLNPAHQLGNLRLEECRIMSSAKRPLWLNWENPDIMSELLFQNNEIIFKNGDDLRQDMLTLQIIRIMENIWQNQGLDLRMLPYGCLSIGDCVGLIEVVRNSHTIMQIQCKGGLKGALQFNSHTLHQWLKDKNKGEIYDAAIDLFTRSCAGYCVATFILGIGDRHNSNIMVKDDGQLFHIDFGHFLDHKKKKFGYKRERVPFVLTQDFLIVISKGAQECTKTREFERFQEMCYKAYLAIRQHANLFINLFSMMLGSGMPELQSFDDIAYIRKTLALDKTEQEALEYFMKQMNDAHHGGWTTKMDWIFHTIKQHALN
T3 sequence (P27986 whole entry partner): as the sequence (P27986 whole entry partner) above

Row | Structure (SMILES) | IC50 (PI3Kδ) [µM] | IC50 (PI3Kγ) [µM] | IC50 (PI3Kα) [µM] | IC50 (PI3Kβ) [µM]
1 | C[C@H](Nc1ncnc2[nH]cnc12)c1cc2cccc(-c3cnn(C)c3)c2c(N2CCN(C)CC2)n1 [Compound 142] | < 1 | > 10 | > 10 | < 10
2 | C[C@H](Nc1ncnc2cccnc12)c1cc2cccc(Cl)c2c(C(=O)NC2CCOCC2)n1 [Compound 143] | < 1 | < 10 | > 10 | > 10
3 | Cc1cccc2cc([C@H](C)Nc3ncnc4[nH]cnc34)nc(C(=O)N3CCOCC3)c12 [Compound 147] | < 1 | < 10 | > 10 | > 10
4 | C[C@H](Nc1ncnc2cccnc12)c1cc2cccc(-c3cnn(C)c3)c2c(OCCN2CCCC2)n1 [Compound 148] | < 1 | < 10 | < 10 | > 10
5 | C[C@H](Nc1ncnc2cccnc12)c1cc2cccc(-c3cnn(C)c3)c2c(CCN2CCOCC2)n1 [Compound 154] | < 1 | < 10 | < 10 | > 10
6 | C[C@H](Nc1ncnc2[nH]cnc12)c1cc2cccc(-c3cnn(C)c3)c2c(CCN2CCOCC2)n1 [Compound 157] | < 1 | < 10 | > 10 | > 10
7 | Cc1nc([C@H](C)Nc2ncnc3[nH]cnc23)cc2cccc(-c3cccnc3)c12 [Compound 170] | < 0.1 | < 10 | > 10 | > 10
8 | Cc1nc([C@H](C)Nc2ncnc3[nH]cnc23)cc2cccc(-c3cnn(C)c3)c12 [Compound 171] | < 0.1 | < 10 | < 10 | > 10
9 | C[C@H](Nc1ccnc2ccnn12)c1cc2cccc(Cl)c2c(OC2CCN(S(C)(=O)=O)CC2)n1 [Compound 174] | < 1 | > 10 | > 10 | < 10
10 | C[C@H](Nc1ncnc2cccnc12)c1cc2cccc(-c3cnn(C)c3)c2c(C(=O)N2CCOCC2)n1 [Compound 187] | < 1 | < 10 | < 10 | > 10
11 | C[C@H](Nc1ncnc2[nH]cnc12)c1cc2cccc(-c3cnn(C)c3)c2c(Cl)n1 [Compound 193] | < 0.1 | < 1 | > 10 | > 10
12 | Cc1nc([C@H](C)Nc2ncnc3[nH]cnc23)cc2cccc(C(=O)N3CCOCC3)c12 [Compound 198] | < 1 | > 10 | > 10 | > 10
13 | Cc1nc([C@H](C)Nc2ncnc3[nH]cnc23)cc2cccc(C(=O)N3C4CCC3COC4)c12 [Compound 199] | < 10 | > 10 | > 10 | > 10
14 | C[C@H](Nc1ncnc2cccnc12)c1cc2cccc(-c3cnn(C)c3)c2c(C(=O)N2C3CCC2COC3)n1 [Compound 200] | < 1 | > 10 | > 10 | > 10
15 | C[C@H](Nc1ncnc2[nH]cnc12)c1cc2cccc(-c3cnn(C)c3)c2c(C(=O)N2C3CCC2COC3)n1 [Compound 201] | < 0.1 | < 1 | > 10 | > 10
16 | Cc1nc([C@H](C)Nc2ncnc3[nH]cnc23)cc2cccc(C(=O)N3CCN(C)CC3)c12 [Compound 202] | > 10 | > 10 | > 10 | > 10
17 | C[C@H](Nc1ncnc2[nH]cc(C#N)c12)c1cc2cccc(Cl)c2c(C(=O)N2CCOCC2)n1 [Compound 203] | < 0.1 | < 1 | < 10 | < 10
18 | C[C@H](Nc1ncnc2[nH]cc(F)c12)c1cc2cccc(Cl)c2c(C(=O)N2CCOCC2)n1 [Compound 205] | < 0.1 | < 1 | < 10 | < 10
19 | C[C@H](Nc1ncnc2[nH]cc(C#N)c12)c1cc2cccc(Cl)c2c(C(=O)N2C3CCC2COC3)n1 [Compound 206] | < 0.1 | < 10 | > 10 | < 10
20 | C[C@H](Nc1ncnc2scnc12)c1cc2cccc(Cl)c2c(C(=O)NC2CCNCC2)n1 [Compound 209] | < 0.1 | > 10 | < 10 | > 10

Row | Structure (SMILES) | IC50 (PI3Kδ) [µM] | IC50 (PI3Kγ) [µM] | IC50 (PI3Kα) [µM] | IC50 (PI3Kβ) [µM]
21 | C[C@H](Nc1ncnc2scnc12)c1cc2cccc(Cl)c2c(C(=O)NC2CCN(C)CC2)n1 [Compound 210] | < 0.1 | > 10 | > 10 | > 10
22 | CC(C)N1CCC(NC(=O)c2nc([C@H](C)Nc3ncnc4scnc34)cc3cccc(Cl)c23)CC1 [Compound 211] | < 1 | > 10 | > 10 | > 10
23 | C[C@H](Nc1ncnc2scnc12)c1cc2cccc(Cl)c2c(C(=O)NC2CCOC2)n1 (stereo partly shown) [Compound 215] | < 0.1 | < 10 | > 10 | > 10
24 | C[C@H](Nc1ncnc2scnc12)c1cc2cccc(Cl)c2c(C(=O)NCC2CCOCC2)n1 [Compound 216] | < 1 | > 10 | > 10 | > 10
25 | C[C@H](Nc1nc(N)ncc1C(F)(F)F)c1cc2cccc(Cl)c2c(C(=O)N2CCOCC2)n1 [Compound 217] | < 1 | < 10 | > 10 | > 10
26 | C[C@H](Nc1ncnc2scnc12)c1cc2cccc(Cl)c2c(C(=O)N2CCNC(=O)C2)n1 [Compound 218] | < 0.1 | < 1 | > 10 | < 10
27 | C[C@H](Nc1ncnc2cccnc12)c1cc2cccc(Cl)c2c(C(=O)N2CCS(=O)(=O)CC2)n1 [Compound 219] | < 1 | < 1 | > 10 | > 10
28 | CC1CN(C(=O)c2nc([C@H](C)Nc3ncnc4scnc34)cc3cccc(Cl)c23)CCO1 (stereo partly shown) [Compound 221] | < 0.1 | < 1 | > 10 | > 10
29 | CC1CN(C(=O)c2nc([C@H](C)Nc3ncnc4cccnc34)cc3cccc(Cl)c23)CCO1 (stereo partly shown) [Compound 222] | < 1 | < 1 | < 10 | > 10
30 | C[C@H](Nc1ncnc2scnc12)c1cc2cccc(Cl)c2c(C(=O)N(C)C)n1 [Compound 223] | < 1 | < 1 | > 10 | < 10
31 | C[C@H](Nc1ncnc2cccnc12)c1cc2cccc(Cl)c2c(C(=O)N(C)C)n1 [Compound 224] | < 10 | < 1 | > 10 | < 10
32 | C[C@H](Nc1ncnc2cccnc12)c1cc2cccc(Cl)c2c(C(=O)N2CCNC(=O)C2)n1 [Compound 225] | < 1 | < 1 | < 10 | > 10
33 | C[C@H](Nc1ncnc2cccnc12)c1cc2cccc(Cl)c2c(C(=O)N2CCC(F)(F)CC2)n1 [Compound 226] | < 1 | < 10 | > 10 | > 10
34 | C[C@H](Nc1ncnc2scnc12)c1cc2cccc(Cl)c2c(C(=O)N2CCCOCC2)n1 [Compound 227] | < 0.1 | < 10 | < 10 | < 10
35 | C[C@H](Nc1ncnc2scnc12)c1cc2cccc(Cl)c2c(C(=O)N2CCCCC2)n1 [Compound 229] | < 0.1 | < 10 | < 10 | < 1
36 | C[C@H](Nc1ncnc2cccnc12)c1cc2cccc(Cl)c2c(C(=O)N2CCCCC2)n1 [Compound 230] | < 1 | < 1 | < 10 | > 10
37 | C[C@H](Nc1ncnc2cccnc12)c1cc2cccc(Cl)c2c(C(=O)N2CCCOCC2)n1 [Compound 231] | < 1 | < 10 | < 10 | > 10
38 | C[C@H](Nc1ncnc2cccnc12)c1cc2cccc(Cl)c2c(C(=O)N2CCC(O)CC2)n1 [Compound 233] | < 1 | < 10 | < 10 | > 10
39 | C[C@@H](Nc1ncnc2[nH]cnc12)c1cc2cccc(Cl)c2c(CN2CCCC2)n1 [Compound 239] | > 10 | > 10 | > 10 | > 10
40 | C[C@H](Nc1ncnc2cccnc12)c1cc2cccc(-c3cnn(C)c3)c2c(N2CCN(C)CC2)n1 [Compound 243] | < 1 | < 10 | > 10 | < 10
